Test results as given in PMC12519464, “Dual-Site Inhibition of SARS-CoV‑2 RNA-Dependent RNA Polymerase by Small Molecules Able to Block Viral Replication Identified through a Computer-Aided Drug Discovery Approach” (ACS Infectious Diseases, 2025).

Each compound was assayed against SARS-CoV-2 nsp12/7/8 (RTC) complex (Severe acute respiratory syndrome coronavirus 2, UniProt P0DTD1) (assay: biochemical). Conditions: not given.
Assay type: biochemical

Point of comparison: C[C@H]1[C@H](C)CC[C@]2(C(=O)O)CC[C@]3(C)C(=CC[C@@H]4[C@@]5(C)CCC(=O)C(C)(C)[C@@H]5CC[C@]43C)[C@H]12 [Ursonic acid], IC50 26.5 ± 12.6 µM. Against it:
- Cc1ccc(-n2nc(C(C)(C)C)cc2NC(=O)Nc2ccc(OCCN3CCOCC3)c3ccccc23)cc1 [Doramapimod, reference compound] — higher, > 100 µM
- CC1(C)CC[C@]2(C(=O)O[C@@H]3O[C@H](CO)[C@@H](O)[C@H](O)[C@H]3O)CC[C@]3(C)C(=CC[C@@H]4[C@@]5(C)CC[C@H](O[C@@H]6O[C@H](C(=O)O)[C@@H](O)[C@H](O)[C@H]6O[C@@H]6OC[C@@H](O)[C@H](O)[C@H]6O)C(C)(C)[C@@H]5CC[C@]43C)[C@@H]2C1 [Pseudoginsenoside Rt1] — 1.9-fold higher, 49.3 ± 5.86 µM
- C[C@@H]1CC[C@]2(C(=O)O)CC[C@]3(C)C(=CC[C@@H]4[C@@]5(C)CC[C@H](O)C(C)(C)[C@@H]5CC[C@]43C)[C@@H]2[C@]1(C)O [Pomolic acid] — higher, > 100 µM
- CC(C)(O)/C=C/C(=O)[C@](C)(O)[C@H]1[C@H](O)C[C@@]2(C)[C@@H]3CC=C4[C@@H](C[C@H](O)C(=O)C4(C)C)[C@]3(C)C(=O)C[C@]12C [Cucurbitacin D] — higher, > 100 µM
- CC1(C)[C@@H](O)CC[C@]2(C)[C@H]3C(=O)C=C4[C@@H]5C[C@@](C)(C(=O)O)CC[C@]5(C)CC[C@@]4(C)[C@]3(C)CC[C@@H]12 [Enoxolone, reference compound] — within error, 35.5 ± 4.61 µM
- C=C(C)[C@@H]1CC[C@]2(C)CC[C@]3(C)[C@H](CC[C@@H]4[C@@]5(C)CC[C@H](O)C(C)(C)[C@@H]5CC[C@]43C)[C@@H]12 [Lupeol] — higher, > 100 µM
- CC(=O)c1nn(CC(=O)N2C[C@H](F)C[C@H]2C(=O)Nc2cccc(Br)n2)c2ccc(-c3cnc(C)nc3)cc12 [Danicopan, reference compound] — higher, > 100 µM
- CC(=O)OC(C)(C)/C=C/C(=O)[C@](C)(O)[C@H]1[C@H](O)C[C@@]2(C)[C@@H]3CC=C4[C@@H](C=C(O)C(=O)C4(C)C)[C@]3(C)C(=O)C[C@]12C [Cucurbitacin E] — within error, 47.2 ± 20.5 µM
- Oc1cccc(-c2c3nc(c(-c4cccc(O)c4)c4ccc([nH]4)c(-c4cccc(O)c4)c4nc(c(-c5cccc(O)c5)c5ccc2[nH]5)CC4)C=C3)c1 [Temoporfin, reference compound] — higher, > 100 µM
- CC(C)=CC/C=C(\C)[C@H]1CC[C@]2(C)[C@@H]1[C@H](O)C[C@@H]1[C@@]3(C)CC[C@H](O[C@@H]4O[C@H](CO)[C@@H](O)[C@H](O)[C@H]4O[C@@H]4O[C@H](CO)[C@@H](O)[C@H](O)[C@H]4O)C(C)(C)[C@@H]3CC[C@]12C [Ginsenoside Rg5] — higher, > 100 µM

Same assay, conditions: primer-extension PAGE assay, 150 nM RTC, 5% DMSO, 30 min preincubation at 37 °C; mean and SD of at least 3 independent experiments

Point of comparison: COc1cccc(OC)c1-c1cc(C(=O)NC2(C(=O)O)C3CC4CC(C3)CC2C4)nn1-c1ccnc2cc(Cl)ccc12 (stereo not shown) [Meclinertant, reference compound], IC50 15.4 ± 2.77 µM. Against it:
- CNc1cccc(NC(=O)N[C@@H]2N=C(c3ccccn3)c3ccccc3N(CC(=O)C(C)(C)C)C2=O)c1 [Sograzepide, reference compound] — higher, > 100 µM
- CN1C(=O)c2c(nn(Cc3ccc(-c4cccc(F)n4)cc3)c2Nc2ccccc2)N2C1=N[C@@H]1CCC[C@@H]12 [Lenrispodun, reference compound] — within error, 24.2 ± 8.68 µM
- Cc1c(-c2c(F)cc(C(N)=O)c3[nH]c4c(c23)CC[C@H](C(C)(C)O)C4)cccc1-n1c(=O)c2cccc(F)c2n(C)c1=O [BMS-986142, reference compound] — within 1.5-fold, 22.8 ± 3.63 µM
- Nc1nc(Nc2ccc3c(c2)CC[C@@H](N2CCCC2)CC3)nn1-c1cc2c(nn1)-c1ccccc1CCC2 [Bemcentinib, reference compound] — within error, 18.5 ± 3.41 µM
- C=CC(=O)N1CCN(c2nc(=O)n(-c3c(C)ccnc3C(C)C)c3nc(-c4c(O)cccc4F)c(F)cc23)[C@@H](C)C1 [Sotorasib, reference compound] — 3.1-fold higher, 47 ± 10.6 µM

Same assay, conditions: read-out: IC50: compound concentration required to inhibit by 50% the SARS-CoV-2 RTC enzymatic activity

Point of comparison: CO[C@H]1/C=C/O[C@@]2(C)Oc3c(C)c(O)c4c(c3C2=O)C(=O)C(N2CCCC2)=C(NC(=O)/C(C)=C\C=C\[C@H](C)[C@H](O)[C@@H](C)[C@H](O)[C@H](C)[C@H](O)[C@@H]1C)C4=O [(7S,9E,11S,12S,13S,14S,15S,16R,17S,18S,19E,21Z)-2,13,15,17-tetrahydroxy-11-methoxy-3,7,12,14,16,18,22-heptamethyl-26-pyrrolidin-1-yl-8,30-dioxa-24-azatetracyclo[23.3.1.14,7.05,28]triaconta-1(28),2,4,9,19,21,25-heptaene-6,23,27,29-tetrone], IC50 46.1 ± 15.6 µM. Against it:
- CC(C)=CCC[C@@](C)(O)[C@H]1CC[C@]2(C)[C@@H]1[C@H](O)C[C@@H]1[C@@]3(C)CC[C@H](O[C@@H]4O[C@H](CO)[C@@H](O)[C@H](O)[C@H]4O)C(C)(C)[C@@H]3CC[C@]12C [20(R)-Ginsenoside Rh2] — higher, > 100 µM
- C=C(C)[C@@H]1CC[C@]2(C(=O)O)CC[C@]3(C)[C@H](CC[C@@H]4[C@@]5(C)CC[C@H](O[C@@H]6OC[C@H](O)[C@H](O)[C@H]6O[C@@H]6O[C@@H](C)[C@H](O)[C@@H](O)[C@H]6O)[C@@](C)(CO)[C@@H]5CC[C@]43C)[C@@H]12 [Pulchinenoside A] — 1.9-fold lower, 24.7 ± 0.42 µM
- CC1(C)[C@H](OC(=O)c2ccccc2)CC[C@]2(C)C3=C([C@@H](O)C[C@@H]12)[C@@]1(C)CC[C@@]2(C)CC[C@@](C)(COC(=O)c4ccccc4)C[C@H]2[C@]1(C)CC3 [3,29-Dibenzoyl Rarounitriol] — higher, > 100 µM
- CC[C@H](/C=C/[C@@H](C)[C@H]1CC[C@H]2C3=CC[C@H]4C[C@@H](O[C@@H]5O[C@H](CO)[C@@H](O)[C@H](O)[C@H]5O)CC[C@]4(C)[C@H]3CC[C@]12C)C(C)C [Alpha-Spinasterol glucoside] — higher, > 100 µM
- CC#C/C(=N/OC[C@H]1COCCN1)c1ccc2ncnc(Nc3ccc(OCc4cccc(F)c4)c(Cl)c3)c2c1 [N-[3-chloro-4-[(3-fluorophenyl)methoxy]phenyl]-6-[(E)-N-[[(3R)-morpholin-3-yl]methoxy]-C-prop-1-ynylcarbonimidoyl]quinazolin-4-amine, reference compound] — higher, > 100 µM
- O=C(CCn1c2c(c3ccccc31)CCn1c-2nc2ccccc2c1=O)N1CCN(C2=Nc3ccccc3Oc3ccccc32)CC1 [13-{3-[4-(dibenzo[b,f][1,4]oxazepin-11-yl)piperazin-1-yl]-3-oxopropyl}-8,13-dihydroindolo[2',3':3,4]pyrido[2,1-b]quinazolin-5(7H)-one] — higher, > 100 µM
- CC(C)=CCC[C@@](C)(O)[C@H]1CC[C@]2(C)[C@@H]1[C@H](O)C[C@@H]1[C@@]3(C)CC[C@H](O)C(C)(C)[C@@H]3CC[C@]12C [(20R)-Protopanaxadiol] — higher, > 100 µM
- CC(=O)O[C@@H](C[C@@H](C)C1=C2C[C@H](O)[C@H]3[C@@]4(C)CCC(=O)C(C)(C)[C@@H]4CC[C@]3(C)[C@@]2(C)CC1=O)[C@H]1OC1(C)C [Alisol C monoacetate] — higher, > 100 µM
- C[C@H]1O[C@@H](O[C@H]2CC[C@@]3(C)[C@@H](CC[C@]4(C)[C@@H]3C=C[C@]35OC[C@@]6(CCC(C)(C)C[C@H]63)[C@H](O)C[C@]54C)[C@]2(C)CO)[C@H](O)[C@@H](O[C@@H]2O[C@H](CO)[C@@H](O)[C@H](O)[C@H]2O)[C@H]1O [Saikosaponin D] — higher, > 100 µM
- CC(C)=CCc1c(O)ccc(C(=O)[C@@H]2[C@@H](c3c(O)cc(O)c4c(=O)c(CC=C(C)C)c(-c5ccc(O)cc5O)oc34)C=C(C)C[C@H]2c2ccc(O)cc2O)c1O [Kuwanon H] — within 1.5-fold, 66.2 ± 1.81 µM
